The results in this text go back to patent US20230017045A1, “PYRIDINE AND PYRIMIDINE CARBOXYLATE HERBICIDES AND METHODS OF USE THEREOF” (Dow AgroSciences LLC, priority 2017, published 2023).

Molecules are shown by their SMILES. Where two headings read alike, the source gives them in different places.

The assay has as its system test plant species. As to the kind of experiment: Post-emergent herbicidal activity test (greenhouse, foliar spray, visual growth reduction). It is filed as in vivo. To be noted: post-emergence, 336 h, 140 g ai/ha, 14 days after application. How it is done:
Post-emergent Test: Seeds or nutlets of the desired test plant species were planted in Sun Gro Metro-Mix® 360 planting mixture, which typically has a pH of 6.0 to 6.8 and an organic matter content of about 30 percent, in plastic pots with a surface area of 64 square centimeters. In some aspects, to ensure good germination and healthy plants, a fungicide treatment and/or other chemical or physical treatment was applied. The plants were grown for 7-21 d in a greenhouse with an approximate 15 h photoperiod which was maintained at 23-29° C. during the day and 22-28° C. during the night. Nutrients and water were added on a regular basis and supplemental lighting was provided with overhead metal halide 1000-Watt lamps as necessary. Plants were used for testing when they reached the first or second true leaf stage. A weighed amount, determined by the highest rate to be tested, of each test compound was placed in a 25 mL glass vial and was dissolved in 4 mL of a 97:3 v/v mixture of acetone and DMSO to obtain concentrated stock solutions. […] The concentrated stock solutions obtained were diluted with 20 mL of an aqueous mixture containing acetone, water, isopropyl alcohol, DMSO, […] crop oil concentrate, and X-77 surfactant in a 48.5:39:10:1.5:1.0:0.02 v/v ratio to obtain spray solutions containing the application rate. Compound requirements are based upon a 12 mL application volume at a rate of 187 liters per hectare (L/ha). Formulated compounds were applied to the plant material with an overhead Mandel track sprayer equipped with […] nozzles calibrated to deliver 187 L/ha over an application area of 0.64 square meters at a spray height of 18 inches (43 cm) above the average plant canopy height. Control plants were sprayed in the same manner with the solvent blank. The treated plants and control plants were placed in a greenhouse as described above and watered by subirrigation to prevent wash-off of the test compounds. After 14 d, the condition of the test plants as compared with that of the nontreated and control plants was determined visually and scored on a scale of 0 to 100 percent where 0 corresponds to no injury and 100 corresponds to complete control. In the reporting of the results, Table A: Percent Growth Reduction Conversion Table was used.

Setting [1] is: ALOMY: blackgrass (Alopecurus myosuroides), read-out: Visual Growth Reduction (%) 14 Days After Application, ALOMY.
The mark [2] stands for this setting: AMARE: redroot pigweed (Amaranthus retroflexus), read-out: Visual Growth Reduction (%) 14 Days After Application, AMARE.
The mark [3] stands for this setting: AVEFA: wild oat (Avena fatua), read-out: Visual Growth Reduction (%) 14 Days After Application, AVEFA.
Setting [4] is: CHEAL: lambsquarters (Chenopodium album), read-out: Visual Growth Reduction (%) 14 Days After Application, CHEAL.
The mark [5] stands for this setting: CIRAR: canada thistle (Cirsium arvense), read-out: Visual Growth Reduction (%) 14 Days After Application, CIRAR.
The mark [6] stands for this setting: CYPES: yellow nutsedge (Cyperus esculentus), read-out: Visual Growth Reduction (%) 14 Days After Application, CYPES.
The mark [7] stands for this setting: DIGSA: crabgrass (Digitaria sanguinalis), read-out: Visual Growth Reduction (%) 14 Days After Application, DIGSA.
The mark [8] stands for this setting: ECHCG: barnyardgrass (Echinochloa crus-galli), read-out: Visual Growth Reduction (%) 14 Days After Application, ECHCG.
Setting [9] is: IPOHE: ivy-leaf morning glory (Ipomoea hederacea), read-out: Visual Growth Reduction (%) 14 Days After Application, IPOHE.
The mark [10] stands for this setting: KCHSC: kochia (Bassia scoparia), read-out: Visual Growth Reduction (%) 14 Days After Application, KCHSC.
Where [11] appears, read: ORYSA: rice (Oryza sativa), read-out: Visual Growth Reduction (%) 14 Days After Application, ORYSA.
The mark [12] stands for this setting: SETFA: giant foxtail (Setaria faberi), read-out: Visual Growth Reduction (%) 14 Days After Application, SETFA.
Where [13] appears, read: SORVU: grain sorghum (Sorghum vulgare), read-out: Visual Growth Reduction (%) 14 Days After Application, SORVU.
[14] abbreviates: STEME: common chickweed (Stellaria media), read-out: Visual Growth Reduction (%) 14 Days After Application, STEME.
Where [15] appears, read: TRZAS: wheat, spring (Triticum aestivum), read-out: Visual Growth Reduction (%) 14 Days After Application, TRZAS.

Regarding `COC(=O)c1nc(-c2ccc(C=O)cc2Cl)ccc1Cl` [F22, methyl 3-chloro-6-(2-chloro-4-formylphenyl)picolinate], the pest or weed control at 140 g/ha lay in the range of 0 to 29% under setting [1]; 0 to 29% under setting [2]; 0 to 29% under setting [3]; 0 to 29% under setting [4]; 0 to 29% under setting [5]; 0 to 29% under setting [6]. For the same compound, the pest or weed control at 140 g/ha was in the range of 0 to 29% under setting [7]; 0 to 29% under setting [8]; 0 to 29% under setting [9]; 0 to 29% under setting [10]; 0 to 29% under setting [11]; 0 to 29% under setting [12]. Besides, the pest or weed control at 140 g/ha by setting is: under setting [13], 0 to 29%; under setting [14], 0 to 29%; under setting [15], 0 to 29%.
Regarding `C=Cc1ccc(-c2ccc(Cl)c(C(=O)OC)n2)c(Cl)c1` [F23, methyl 3-chloro-6-(2-chloro-4-vinylphenyl)picolinate], the pest or weed control at 140 g/ha under setting [1] lay in the range of 0 to 29%; the pest or weed control at 140 g/ha under setting [2] lay in the range of 0 to 29%; the pest or weed control at 140 g/ha under setting [3] is 0 to 29%; the pest or weed control at 140 g/ha under setting [4] was 0 to 29%; the pest or weed control at 140 g/ha under setting [5] is 0 to 29%; the pest or weed control at 140 g/ha under setting [6] lay in the range of 0 to 29%. The pest or weed control at 140 g/ha is 0 to 29% under setting [7]; 0 to 29% under setting [8]; 30 to 44% under setting [9]; 0 to 29% under setting [10]; 0 to 29% under setting [11]; 0 to 29% under setting [12]. For the same compound, the pest or weed control at 140 g/ha under setting [13] fell in the range of 0 to 29%, the pest or weed control at 140 g/ha under setting [14] is 0 to 29% and the pest or weed control at 140 g/ha under setting [15] was in the range of 0 to 29%.
Consider `COC(=O)c1nc(-c2ccc(C(F)(F)F)cc2C#N)ccc1Cl` [F24, Methyl 3-chloro-6-(2-cyano-4-(trifluoromethyl)phenyl) picolinate], for which the pest or weed control at 140 g/ha was in the range of 0 to 29% under setting [1]; 85 to 94% under setting [2]; 0 to 29% under setting [3]; 95 to 100% under setting [4]; 95 to 100% under setting [5]; 0 to 29% under setting [6]. The pest or weed control at 140 g/ha under setting [7] lay in the range of 85 to 94%; the pest or weed control at 140 g/ha under setting [8] fell in the range of 85 to 94%; the pest or weed control at 140 g/ha under setting [9] lay in the range of 95 to 100%; the pest or weed control at 140 g/ha under setting [10] was 60 to 74%; the pest or weed control at 140 g/ha under setting [11] fell in the range of 0 to 29%; the pest or weed control at 140 g/ha under setting [12] was in the range of 45 to 59%. Moreover, the pest or weed control at 140 g/ha is, setting by setting: under setting [13], 85 to 94%; under setting [14], 0 to 29%; under setting [15], 0 to 29%.
On to `COC(=O)c1nc(-c2ccc(-c3ccc(F)cc3)cc2Cl)ccc1Cl` [F25, methyl 3-chloro-6-(3-chloro-4′-fluoro-[1, 1′-biphenyl]-4-yl) picolinate], for which the pest or weed control at 140 g/ha is 0 to 29% under setting [1]; 0 to 29% under setting [2]; 0 to 29% under setting [3]; 0 to 29% under setting [4]; 0 to 29% under setting [5]; 0 to 29% under setting [6]. Besides, the pest or weed control at 140 g/ha is 0 to 29% under setting [7]; 0 to 29% under setting [8]; 0 to 29% under setting [9]; 0 to 29% under setting [10]; 0 to 29% under setting [11]; 0 to 29% under setting [12]. The pest or weed control at 140 g/ha by setting is: under setting [13], 30 to 44%; under setting [14], 0 to 29%; under setting [15], 0 to 29%.
As for `COC(=O)c1nc(-c2ccc(C(C)=O)cc2Cl)ccc1Cl` [F26, methyl 6-(4-acetyl-2-chlorophenyl)-3-chloropicolinate], the pest or weed control at 140 g/ha fell in the range of 0 to 29% under setting [1]; 0 to 29% under setting [2]; 0 to 29% under setting [3]; 0 to 29% under setting [4]; 0 to 29% under setting [5]; 0 to 29% under setting [6]. Also, the pest or weed control at 140 g/ha reads like this: under setting [7], 0 to 29%; under setting [8], 0 to 29%; under setting [9], 0 to 29%; under setting [10], 0 to 29%; under setting [11], 0 to 29%; under setting [12], 0 to 29%. Also, the pest or weed control at 140 g/ha fell in the range of 0 to 29% under setting [13], 0 to 29% under setting [14] and 0 to 29% under setting [15].
`COC(=O)c1nc(-c2ccc(Br)cc2Cl)ccc1Cl` [F27, Methyl 6-(4-bromo-2-chlorophenyl)-3-chloropicolinate]: the pest or weed control at 140 g/ha under setting [1] is 0 to 29%; the pest or weed control at 140 g/ha under setting [2] lay within 60 to 74%; the pest or weed control at 140 g/ha under setting [3] fell in the range of 0 to 29%; the pest or weed control at 140 g/ha under setting [4] lay in the range of 45 to 59%; the pest or weed control at 140 g/ha under setting [5] lay within 75 to 84%; the pest or weed control at 140 g/ha under setting [6] was in the range of 0 to 29%. The pest or weed control at 140 g/ha is, setting by setting: under setting [7], 60 to 74%; under setting [8], 0 to 29%; under setting [9], 85 to 94%; under setting [10], 30 to 44%; under setting [11], 0 to 29%; under setting [12], 0 to 29%. For the same compound, the pest or weed control at 140 g/ha by setting is: under setting [13], 60 to 74%; under setting [14], 0 to 29%; under setting [15], 0 to 29%.
On to `COC(=O)c1nc(-c2ccc(C(F)(F)F)cc2OC)ccc1Cl` [F28, Methyl 3-chloro-6-(2-methoxy-4-(trifluoromethyl)phenyl)picolinate], for which the pest or weed control at 140 g/ha lay in the range of 0 to 29% under setting [1]; 60 to 74% under setting [2]; 0 to 29% under setting [3]; 60 to 74% under setting [4]; 75 to 84% under setting [5]; 0 to 29% under setting [6]. The pest or weed control at 140 g/ha is 45 to 59% under setting [7]; 0 to 29% under setting [8]; 95 to 100% under setting [9]; 30 to 44% under setting [10]; 0 to 29% under setting [11]; 30 to 44% under setting [12]. Besides, the pest or weed control at 140 g/ha is 75 to 84% under setting [13], 0 to 29% under setting [14] and 0 to 29% under setting [15].
